Laboratory results as given in ChEMBL document CHEMBL1156642, “Discovery of betamethasone 17alpha-carbamates as dissociated glucocorticoid receptor modulators in the rat” (Bioorg Med Chem, 2008).
Calls of active or inactive are those of the source. The calls are words filed in the database; no cut-off is given here.

Tests used:
Rattus norvegicus [1] = test: Effect on body weight change in Lewis rat with implanted cotton pellets at 5.0 mg/kg, po bid for 4 days; type: functional
Rattus norvegicus [2] = test: Effect on body weight change in Lewis rat with implanted cotton pellets at 19 mg/kg, po bid for 4 days; type: functional
Rattus norvegicus [3] = test: Effect on adrenal weight in Lewis rat with implanted cotton pellets at 19 mg/kg, po bid; type: functional
Rattus norvegicus [4] = test: Effect on thymus weight in Lewis rat with implanted cotton pellets at 10 mg/kg, po bid; type: functional
[5] = target: T1, Interstitial collagenase (Homo sapiens) (UniProt P03956); test: Inhibition of glucocorticoid-mediated human MMP1 expression in PMA stimulated A549 cells assessed as MMP1 protein level by ELISA relative to Dexamethasone; type: cell-based; set-up: scale not given: the % may be the effect or the level left
T1 sequence (whole entry): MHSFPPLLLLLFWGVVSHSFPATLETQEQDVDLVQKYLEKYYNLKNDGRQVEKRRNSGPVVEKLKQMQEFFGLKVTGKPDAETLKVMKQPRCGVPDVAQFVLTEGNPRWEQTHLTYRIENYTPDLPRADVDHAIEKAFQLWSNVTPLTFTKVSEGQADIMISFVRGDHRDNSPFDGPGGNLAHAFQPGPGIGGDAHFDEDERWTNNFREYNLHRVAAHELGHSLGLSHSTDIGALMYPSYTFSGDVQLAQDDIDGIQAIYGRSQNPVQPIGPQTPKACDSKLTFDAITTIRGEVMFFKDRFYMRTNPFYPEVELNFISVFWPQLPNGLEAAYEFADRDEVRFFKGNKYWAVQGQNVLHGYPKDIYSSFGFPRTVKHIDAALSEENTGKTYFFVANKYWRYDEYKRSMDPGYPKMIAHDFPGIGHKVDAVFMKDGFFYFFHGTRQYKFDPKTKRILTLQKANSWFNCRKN

Rattus norvegicus [6] = test: Effect on spleen weight in Lewis rat with implanted cotton pellets at 5.0 mg/kg, po bid; type: functional
Rattus norvegicus [7] = test: Effect on body weight change in Lewis rat with implanted cotton pellets at 10 mg/kg, po bid for 7 days; type: functional
Rattus norvegicus [8] = test: Effect on plasma glucose level in Lewis rat with implanted cotton pellets at 19 mg/kg, po by oral glucose tolerance test; type: functional, organism-based; set-up: dose 19 mg/kg
Rattus norvegicus [9] = test: Effect on spleen weight in Lewis rat with implanted cotton pellets at 10 mg/kg, po bid; type: functional
Rattus norvegicus [10] = test: Inhibition of granuloma formation in cotton pellet implanted Lewis rat at 10 mg/kg, po bid; type: functional
Rattus norvegicus [11] = test: Effect on body weight change in Lewis rat with implanted cotton pellets at 5.0 mg/kg, po bid for 7 days; type: functional
Rattus norvegicus [12] = test: Inhibition of granuloma formation in cotton pellet implanted Lewis rat at 5.0 mg/kg, po bid; type: functional
Rattus norvegicus [13] = test: Effect on spleen weight in Lewis rat with implanted cotton pellets at 19 mg/kg, po bid; type: functional
Rattus norvegicus [14] = test: Effect on body weight change in Lewis rat with implanted cotton pellets at 10 mg/kg, po bid for 4 days; type: functional
Rattus norvegicus [15] = test: Effect on thymus weight in Lewis rat with implanted cotton pellets at 5.0 mg/kg, po bid; type: functional
Rattus norvegicus [16] = test: Effect on plasma glucose level in Lewis rat with implanted cotton pellets at 10 mg/kg, po by oral glucose tolerance test; type: functional, organism-based; set-up: dose 10 mg/kg
Rattus norvegicus [17] = test: Effect on adrenal weight in Lewis rat with implanted cotton pellets at 10 mg/kg, po bid; type: functional
Progesterone receptor = target: T2, Progesterone receptor (Homo sapiens, UniProt P06401); test: Inhibition of human progesterone receptor
T2 sequence (P06401 whole entry): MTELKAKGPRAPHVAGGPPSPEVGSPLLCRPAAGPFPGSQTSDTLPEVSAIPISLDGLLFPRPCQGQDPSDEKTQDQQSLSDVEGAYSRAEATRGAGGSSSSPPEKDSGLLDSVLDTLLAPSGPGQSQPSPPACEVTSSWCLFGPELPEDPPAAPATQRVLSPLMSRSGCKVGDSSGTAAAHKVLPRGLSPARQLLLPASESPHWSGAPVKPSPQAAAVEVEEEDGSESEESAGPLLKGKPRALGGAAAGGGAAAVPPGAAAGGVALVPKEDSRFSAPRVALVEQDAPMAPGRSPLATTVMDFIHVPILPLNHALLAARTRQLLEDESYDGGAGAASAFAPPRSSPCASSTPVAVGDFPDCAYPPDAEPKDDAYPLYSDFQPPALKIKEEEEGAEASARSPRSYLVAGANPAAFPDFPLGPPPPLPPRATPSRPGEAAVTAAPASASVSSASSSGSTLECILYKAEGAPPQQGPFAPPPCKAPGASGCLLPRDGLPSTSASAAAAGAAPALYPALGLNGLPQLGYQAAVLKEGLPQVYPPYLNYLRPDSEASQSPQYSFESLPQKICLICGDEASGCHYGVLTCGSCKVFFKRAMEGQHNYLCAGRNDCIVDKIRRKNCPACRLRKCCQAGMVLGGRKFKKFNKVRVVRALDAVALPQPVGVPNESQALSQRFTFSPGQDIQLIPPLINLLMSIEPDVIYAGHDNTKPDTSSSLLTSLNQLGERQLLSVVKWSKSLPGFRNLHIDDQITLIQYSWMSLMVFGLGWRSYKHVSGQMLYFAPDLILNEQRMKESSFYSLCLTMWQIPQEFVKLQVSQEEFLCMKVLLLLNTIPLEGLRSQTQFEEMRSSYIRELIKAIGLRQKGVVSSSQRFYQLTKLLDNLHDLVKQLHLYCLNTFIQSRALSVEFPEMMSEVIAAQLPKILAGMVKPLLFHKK

Rattus norvegicus [18] = test: Inhibition of granuloma formation in cotton pellet implanted Lewis rat at 19 mg/kg, po bid; type: functional
Rattus norvegicus [19] = test: Effect on thymus weight in Lewis rat with implanted cotton pellets at 19 mg/kg, po bid; type: functional
Rattus norvegicus [20] = species on record: Rattus norvegicus; test: Transactivation activity of glutamine synthase in rat skeletal muscle cells relative to Dexamethasone; type: cell-based
Glucocorticoid receptor = target: T3, Glucocorticoid receptor (Homo sapiens, UniProt P04150)
T3 sequence (P04150 whole entry): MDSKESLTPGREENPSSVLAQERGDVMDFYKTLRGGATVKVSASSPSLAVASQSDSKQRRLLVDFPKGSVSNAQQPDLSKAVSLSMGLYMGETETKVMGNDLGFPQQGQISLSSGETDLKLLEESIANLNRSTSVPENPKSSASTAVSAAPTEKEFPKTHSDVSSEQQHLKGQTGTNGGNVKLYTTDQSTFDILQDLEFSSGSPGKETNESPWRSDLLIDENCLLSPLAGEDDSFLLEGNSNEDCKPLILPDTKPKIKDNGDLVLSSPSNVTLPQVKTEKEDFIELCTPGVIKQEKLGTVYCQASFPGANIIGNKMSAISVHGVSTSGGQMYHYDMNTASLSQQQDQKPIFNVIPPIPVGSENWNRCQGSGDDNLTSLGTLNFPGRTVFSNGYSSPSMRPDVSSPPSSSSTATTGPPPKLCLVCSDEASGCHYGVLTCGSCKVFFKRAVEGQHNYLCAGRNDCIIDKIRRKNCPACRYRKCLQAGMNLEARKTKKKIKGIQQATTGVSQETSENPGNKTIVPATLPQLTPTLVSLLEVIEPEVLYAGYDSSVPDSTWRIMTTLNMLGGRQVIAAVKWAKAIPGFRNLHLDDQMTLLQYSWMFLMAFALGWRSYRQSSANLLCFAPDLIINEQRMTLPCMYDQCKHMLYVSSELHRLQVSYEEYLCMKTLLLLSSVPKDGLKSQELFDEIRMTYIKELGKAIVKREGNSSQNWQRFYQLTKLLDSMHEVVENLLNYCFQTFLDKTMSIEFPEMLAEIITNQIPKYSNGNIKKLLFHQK
Description: Inhibition of human glucocorticoid receptor

Rattus norvegicus [21] = test: Effect on body weight change in Lewis rat with implanted cotton pellets at 19 mg/kg, po bid for 7 days; type: functional
Rattus norvegicus [22] = test: Effect on adrenal weight in Lewis rat with implanted cotton pellets at 5.0 mg/kg, po bid; type: functional
[23] = Transactivation activity of glutamine synthase in rat skeletal muscle cells; type: cell-based

Structure (SMILES) | Activity [5] [%] | IC50 (Progesterone receptor) [nM] | Activity (Rattus norvegicus [20]) [%] | IC50 (Glucocorticoid receptor) [nM] | EC50 [23] [nM] | further results
CCCNC(=O)O[C@]1(C(=O)CO)[C@@H](C)C[C@H]2[C@@H]3CCC4=CC(=O)C=C[C@]4(C)[C@@]3(F)[C@@H](O)C[C@@]21C | 103 | 394 | 34.7 | 3.6 |  | Activity (Rattus norvegicus [1]): 1.1 g; Activity (Rattus norvegicus [2]): 3.9 g; Activity (Rattus norvegicus [3]): 25.6 mg; Activity (Rattus norvegicus [4]): 91.4 mg; Activity (Rattus norvegicus [6]): 296.1 mg; Activity (Rattus norvegicus [7]): 7.1 g; Activity (Rattus norvegicus [8]): Active; Activity (Rattus norvegicus [9]): 274.3 mg; inhibition in vivo at 10 mg/kg (Rattus norvegicus [10]): 40%; Activity (Rattus norvegicus [11]): 5 g; inhibition in vivo at 5 mg/kg (Rattus norvegicus [12]): 32.7%; Activity (Rattus norvegicus [13]): 258 mg; Activity (Rattus norvegicus [14]): 3.9 g; Activity (Rattus norvegicus [15]): 105.5 mg; Activity (Rattus norvegicus [16]): Active; Activity (Rattus norvegicus [17]): 34.6 mg; inhibition in vivo at 19 mg/kg (Rattus norvegicus [18]): 51%; Activity (Rattus norvegicus [19]): 82.9 mg; Activity (Rattus norvegicus [21]): 6.6 g; Activity (Rattus norvegicus [22]): 34.7 mg
COC(=O)[C@H](C)NC(=O)O[C@]1(C(=O)CO)[C@@H](C)C[C@H]2[C@@H]3CCC4=CC(=O)C=C[C@]4(C)[C@@]3(F)[C@@H](O)C[C@@]21C | 107 |  | 103 | 28.6 | 47 | 
C[C@H]1C[C@H]2[C@@H]3CCC4=CC(=O)C=C[C@]4(C)[C@@]3(F)[C@@H](O)C[C@]2(C)[C@@]1(OC(=O)NC1CCCCC1)C(=O)CO | 82 | 120 | 24.7 |  |  | 
CCC(C)NC(=O)O[C@]1(C(=O)CO)[C@@H](C)C[C@H]2[C@@H]3CCC4=CC(=O)C=C[C@]4(C)[C@@]3(F)[C@@H](O)C[C@@]21C (stereo partly specified) | 97.5 |  | 54 | 0.5 | 0.3 | 
C[C@@H](NC(=O)O[C@]1(C(=O)CO)[C@@H](C)C[C@H]2[C@@H]3CCC4=CC(=O)C=C[C@]4(C)[C@@]3(F)[C@@H](O)C[C@@]21C)c1ccccc1 | 87.5 |  | 92 | 5.2 | 1.6 | 
C[C@H](NC(=O)O[C@]1(C(=O)CO)[C@@H](C)C[C@H]2[C@@H]3CCC4=CC(=O)C=C[C@]4(C)[C@@]3(F)[C@@H](O)C[C@@]21C)c1ccccc1 | 93 | 176 | 49 | 1.3 | 0.6 | 
C[C@H]1C[C@H]2[C@@H]3CCC4=CC(=O)C=C[C@]4(C)[C@@]3(F)[C@@H](O)C[C@]2(C)[C@@]1(OC(=O)NC(C)(C)CC(C)(C)C)C(=O)CO | 80.3 | > 1000 | 50 | 5.7 | 223 | 
C[C@H]1C[C@H]2[C@@H]3CCC4=CC(=O)C=C[C@]4(C)[C@@]3(F)[C@@H](O)C[C@]2(C)[C@@]1(OC(=O)NC12CC3CC(CC(C3)C1)C2)C(=O)CO | 84.1 |  |  | 5.8 |  | 
